In article PMC8256334, “Simultaneous Determination of a Novel PD-L1 Inhibitor, IMMH-010, and Its Active Metabolite, YPD-29B, in Rat Biological Matrices by Polarity-Switching Liquid Chromatography-Tandem Mass Spectrometry: Application to ADME Studies” (Frontiers in Pharmacology, 2021):
Where “and” joins values, the source holds several entries; their conditions need not be identical. Equal entries are not always repeated. Where two headings read alike, the source gives them in different places.

Legend:
[1] = Excretion study in rats (urine and feces); format: in vivo, Sprague-Dawley rats; conditions: for excretion in feces, % Of administered dose / excretion in urine, % Of administered dose: i.g. IMMH-010 maleate 10 mg/kg, n = 5; for share of the dose recovered in the urine and feces as this analyte: urine and feces within 72 h, rats, oral IMMH-010 maleate
Experimental: (§1) Female Sprague-Dawley rats (200 ± 20 g, Vital River, Beijing, China) were kept in standard environmental conditions. Rats were fasted overnight with free access to water and randomly assigned to different groups before the experiments. All animal protocols were approved by the Institute Animal Care and Welfare Committee of the Institute of Materia Medica, Chinese Academy of Medical Sciences and Peking Union Medical College.
After i. g. administration of IMMH-010 maleate (10 mg/kg), rats were housed in separate metabolite cages to collect their urine and feces: 0–12, 12–24, 24–36, 36–48, and 48–72 h for urine and 0–24, 24–48, and 48–72 h for feces. Fecal samples were dried in air. Urine samples were stored at −20°C prior to analysis.

Stability in rat plasma = format: in vitro ADME; conditions: for Accuracy (RE, %) / Measured conc.: n = 5; for stability during the sample preparation, storage and analysis: rat plasma: 4°C 4 h, −20°C 3 months, three freeze-thaw cycles, autosampler 10°C 48 h
Experimental: Plasma: IMMH-010 is an ester-containing compound. […] Therefore, heparin sodium and NaF were dissolved with 0.9% w/v sodium chloride to prepare a mixture of 0.5% heparin sodium and 500 mM NaF. All blood was withdrawn into EP tubes containing this mixture (1:9 v/v mixture:blood) followed by plasma separation. The plasma standards for IMMH-010 were prepared at 1, 2, 5, 10, 20, 80, 120 and 200 ng/ml, and those for YPD-29B were prepared at 2.5, 5, 10, 20, 50, 400, 600 and 1,000 ng/ml. QC samples were prepared at 1, 2, 40 and 160 ng/ml for IMMH-010 and 2.5, 5, 200 and 800 ng/ml for YPD-29B.
For short-term and long-term stability, plasma samples were kept at 4°C for 4 h and −20°C for 3 months, respectively. To evaluate freeze-thaw stability, samples were frozen at −20°C for 24 h and thawed at 4°C for three cycles. […] Stability assays of IMMH-010 and YPD-29B were performed at two QC levels (high and low QC) (n = 5).

[2] = PK study in rats after single i.g. administration of IMMH-010 maleate; format: in vivo, Sprague-Dawley rats; conditions: for AUC(0-inf) / AUC(0-t) / Cmax / MRT last / MRT inf / Tmax / half-life: female, Sprague-Dawley, po; for AUC(0-inf) / AUC(0-t) / Cmax / MRT last / MRT inf / Tmax / half-life / dose dependence of AUC: rat plasma; for MRT last: read-out: MRT(0-t); for MRT inf: read-out: MRT(0-∞); for Tmax: median (range); for half-life: rat, plasma; for dose dependence of AUC: dose range 10–100 mg/kg IMMH-010 maleate, oral
Text: as §1
IMMH-010 maleate was suspended in 0.5% sodium carboxymethyl cellulose. The rats were intragastrically (i.g.) administered IMMH-010 maleate at doses of 10, 30, and 100 mg/kg. Blood samples were withdrawn via the orbital plexus into heparinized tubes with NaF at 5, 15, and 30 min and 1, 2, 4, 6, 8, 12, 24, 36, and 48 h. Plasma was immediately prepared by centrifugation at 5,000 rpm for 10 min. All samples were stored at −20°C prior to analysis. The PK parameters of IMMH-010 and YPD-29B were calculated using the Linear Trapezoidal with Linear Interpolation method by WinNonlin software version 6.3 based on a noncompartmental model (Pharsight Corporation, Mountain View, United States ).

[3] = prepared rat plasma samples, at 15°C in auto-sampler (24 h), spiked 2 ng/ml IMMH-010, 5 ng/ml YPD-29B
[4] = prepared rat plasma samples, at 15°C in auto-sampler (24 h), spiked 160 ng/ml IMMH-010, 800 ng/ml YPD-29B
[5] = prepared rat plasma samples, at 15°C in auto-sampler (48 h), spiked 2 ng/ml IMMH-010, 5 ng/ml YPD-29B
[6] = prepared rat plasma samples, at 15°C in auto-sampler (48 h), spiked 160 ng/ml IMMH-010, 800 ng/ml YPD-29B
[7] = rat plasma, 4°C (4 h), spiked 2 ng/ml IMMH-010, 5 ng/ml YPD-29B
[8] = rat plasma, 4°C (4 h), spiked 160 ng/ml IMMH-010, 800 ng/ml YPD-29B
[9] = rat plasma, stored at −20°C (3 months), spiked 2 ng/ml IMMH-010, 5 ng/ml YPD-29B
[10] = rat plasma, stored at −20°C (3 months), spiked 160 ng/ml IMMH-010, 800 ng/ml YPD-29B
[11] = rat plasma, three freeze–thaw cycles, spiked 2 ng/ml IMMH-010, 5 ng/ml YPD-29B
[12] = rat plasma, three freeze–thaw cycles, spiked 160 ng/ml IMMH-010, 800 ng/ml YPD-29B
[13] = single i.g. IMMH-010 maleate 10 mg/kg, mean ± SD, n = 5
[14] = single i.g. IMMH-010 maleate 10 mg/kg, n = 5
[15] = single i.g. IMMH-010 maleate 30 mg/kg, mean ± SD, n = 5
[16] = single i.g. IMMH-010 maleate 30 mg/kg, n = 5
[17] = single i.g. IMMH-010 maleate 100 mg/kg, mean ± SD, n = 5
[18] = single i.g. IMMH-010 maleate 100 mg/kg, n = 5
[19] = 30 mg/kg, single i.g. IMMH-010 maleate 30 mg/kg, mean ± SD, n = 5, read-out: t1/2β (converted)
[20] = 100 mg/kg, single i.g. IMMH-010 maleate 100 mg/kg, mean ± SD, n = 5, read-out: t1/2β (converted)

O=C(O)[C@H](CO)NCc1cc(Cl)c(OCc2cccc(-c3ccccc3)c2Br)cc1OCc1cccnc1 [YPD-29B]
excretion in feces, % Of administered dose ([1]; time 24 h): 14.56 ± 8.45 % Of administered dose | excretion in feces, % Of administered dose ([1]; time 48 h): 19.42 ± 6.85 % Of administered dose | excretion in feces, % Of administered dose ([1]; time 72 h): 19.65 % Of administered dose and 19.65 ± 6.76 % Of administered dose | share of the dose recovered in the urine and feces as this analyte [1]: 20.82% | excretion in urine, % Of administered dose ([1]; time 12 h): 0.52 ± 0.15 % Of administered dose | excretion in urine, % Of administered dose ([1]; time 24 h): 0.63 ± 0.15 % Of administered dose | excretion in urine, % Of administered dose ([1]; time 36 h): 0.71 ± 0.17 % Of administered dose | excretion in urine, % Of administered dose ([1]; time 48 h): 0.85 ± 0.36 % Of administered dose | excretion in urine, % Of administered dose ([1]; time 72 h): 1.17 % Of administered dose and 1.17 ± 0.91 % Of administered dose | Accuracy (RE, %) (Stability in rat plasma; [3]): −1.6% | Measured conc. (Stability in rat plasma; [3]): 4.92 ± 0.25 ng/mL | Accuracy (RE, %) (Stability in rat plasma; [4]): 5.6% | Measured conc. (Stability in rat plasma; [4]): 845 ± 13 ng/mL | Accuracy (RE, %) (Stability in rat plasma; [5]): −12.2% | Measured conc. (Stability in rat plasma; [5]): 4.39 ± 0.19 ng/mL | Accuracy (RE, %) (Stability in rat plasma; [6]): −1.1% | Measured conc. (Stability in rat plasma; [6]): 791 ± 17 ng/mL | stability during the sample preparation, storage and analysis (Stability in rat plasma): stable | Accuracy (RE, %) (Stability in rat plasma; [7]): −4.8% | Measured conc. (Stability in rat plasma; [7]): 4.76 ± 0.12 ng/mL | Accuracy (RE, %) (Stability in rat plasma; [8]): 4.0% | Measured conc. (Stability in rat plasma; [8]): 832 ± 8 ng/mL | Accuracy (RE, %) (Stability in rat plasma; [9]): −2.6% | Measured conc. (Stability in rat plasma; [9]): 4.87 ± 0.50 ng/mL | Accuracy (RE, %) (Stability in rat plasma; [10]): −6.5% | Measured conc. (Stability in rat plasma; [10]): 748 ± 3 ng/mL | Accuracy (RE, %) (Stability in rat plasma; [11]): −6.2% | Measured conc. (Stability in rat plasma; [11]): 4.69 ± 0.21 ng/mL | Accuracy (RE, %) (Stability in rat plasma; [12]): 3.9% | Measured conc. (Stability in rat plasma; [12]): 831 ± 51 ng/mL | AUC(0-inf) [2, 13]: 110 ± 46.6 ng·h/mL | AUC(0-t) [2, 13]: 94.3 ± 46.3 ng·h/mL | Cmax [2, 13]: 63.7 ± 29.1 ng/mL | MRT last [2, 13]: 1.5 ± 0.4 h | MRT inf [2, 13]: 2.27 ± 0.96 h | Tmax [2, 14]: 30 min | AUC(0-inf) [2, 15]: 521 ± 114 ng·h/mL | AUC(0-t) [2, 15]: 503 ± 110 ng·h/mL | Cmax [2, 15]: 268 ± 43 ng/mL | MRT last [2, 15]: 1.55 ± 0.14 h | MRT inf [2, 15]: 2.06 ± 0.55 h | Tmax [2, 16]: 30 min | AUC(0-inf) [2, 17]: 1640 ng·h/mL | AUC(0-t) [2, 17]: 1620 ng·h/mL | Cmax [2, 17]: 569 ± 72 ng/mL | MRT last [2, 17]: 2.88 ± 0.89 h | MRT inf [2, 17]: 3.12 ± 0.87 h | Tmax [2, 18]: 60 min | half-life ([2]; 10 mg/kg, single i.g. IMMH-010 maleate 10 mg/kg, mean ± SD, n = 5, read-out: t1/2β (converted)): 94.2 ± 64.8 min | half-life [2, 19]: 219 ± 166 min | half-life ([2]; 100 mg/kg, i.g. IMMH-010 maleate 10, 30 and 100 mg/kg, range over doses, read-out: average plasma elimination half-life (t1/2β)): 94.2 to 219 min | half-life [2, 20]: 186 ± 106 min | dose dependence of AUC [2]: proportional to the dose | time postdose at which the metabolite could be detected in plasma ([2]; rats, after oral administration of IMMH-010 maleate): 5 min

CC(C)OC(=O)C(CO)NCc1cc(Cl)c(OCc2cccc(-c3ccccc3)c2Br)cc1OCc1cccnc1 (stereo not drawn) [IMMH-010, 2-[4-(2-bromo-biphenyl-3-ylmethoxy)-5-chloro-2-(pyridin-3-ylmethoxy)-benzylamino]-3-hydroxy-propionic acid isopropyl ester]
excretion in feces, % Of administered dose ([1]; time 24 h): 6.97 ± 5.69 % Of administered dose | excretion in feces, % Of administered dose ([1]; time 48 h): 7.99 ± 5.66 % Of administered dose | excretion in feces, % Of administered dose ([1]; time 72 h): 7.99 % Of administered dose and 7.99 ± 5.66 % Of administered dose | share of the dose recovered in the urine and feces as this analyte [1]: 7.99% | stability in rat plasma with esterase inhibitor (Stability in rat plasma; 4°C, rat plasma containing 50 mM NaF, preliminary results): stable | Accuracy (RE, %) (Stability in rat plasma; [3]): −6.0% | Measured conc. (Stability in rat plasma; [3]): 1.88 ± 0.21 ng/mL | Accuracy (RE, %) (Stability in rat plasma; [4]): −7.5% | Measured conc. (Stability in rat plasma; [4]): 148 ± 4 ng/mL | Accuracy (RE, %) (Stability in rat plasma; [5]): 2.0% | Measured conc. (Stability in rat plasma; [5]): 2.04 ± 0.07 ng/mL | Accuracy (RE, %) (Stability in rat plasma; [6]): −3.8% | Measured conc. (Stability in rat plasma; [6]): 154 ± 4 ng/mL | stability during the sample preparation, storage and analysis (Stability in rat plasma): stable | Accuracy (RE, %) (Stability in rat plasma; [7]): 2.5% | Measured conc. (Stability in rat plasma; [7]): 2.05 ± 0.10 ng/mL | Accuracy (RE, %) (Stability in rat plasma; [8]): 8.1% | Measured conc. (Stability in rat plasma; [8]): 173 ± 20 ng/mL | Accuracy (RE, %) (Stability in rat plasma; [9]): 12.0% | Measured conc. (Stability in rat plasma; [9]): 2.24 ± 0.10 ng/mL | Accuracy (RE, %) (Stability in rat plasma; [10]): 3.8% | Measured conc. (Stability in rat plasma; [10]): 166 ± 4 ng/mL | Accuracy (RE, %) (Stability in rat plasma; [11]): 5.5% | Measured conc. (Stability in rat plasma; [11]): 2.11 ± 0.22 ng/mL | Accuracy (RE, %) (Stability in rat plasma; [12]): −1.9% | Measured conc. (Stability in rat plasma; [12]): 157 ± 4 ng/mL | AUC(0-t) [2, 13]: 8.5 ± 3.67 ng·h/mL | Cmax [2, 13]: 8.45 ± 3.27 ng/mL | MRT last [2, 13]: 0.8 ± 0.13 h | Tmax [2, 14]: 30 min | AUC(0-inf) [2, 15]: 44.1 ± 20.6 ng·h/mL | AUC(0-t) [2, 15]: 37.5 ± 13.5 ng·h/mL | Cmax [2, 15]: 28.4 ± 13 ng/mL | MRT last [2, 15]: 1.09 ± 0.21 h | MRT inf [2, 15]: 1.49 ± 0.3 h | Tmax [2, 16]: 30 min | AUC(0-inf) [2, 17]: 134 ± 45.7 ng·h/mL | AUC(0-t) [2, 17]: 129 ± 45.6 ng·h/mL | Cmax [2, 17]: 71.4 ± 34 ng/mL | MRT last [2, 17]: 1.82 ± 0.53 h | MRT inf [2, 17]: 2.11 ± 0.69 h | Tmax [2, 18]: 30 min | half-life [2, 19]: 58.8 ± 16.8 min | half-life [2, 20]: 97.8 ± 29.4 min | dose dependence of AUC [2]: proportional to the dose
